Assay results from PubChem BioAssay (NCI).
Several values for one entry are separate records, joined by “and”; a condition that tells them apart may be missing. Equal entries are not always repeated.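 All cell lines were grown in 96-well plates and treated with compound for 48 hours. GI50 is the concentration that inhibits growth by half. TGI: concentration producing complete growth inhibition.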

Tests used:
Experiment in all cases: inhibition of tumour cell growth, NCI panel, 48 h
786-0 renal = test system: 786-0 renal
A498 renal = test system: A498 renal
A549 NSCLC = test system: A549 NSCLC
ACHN renal = test system: ACHN renal
BT-549 breast = test system: BT-549 breast
CAKI-1 renal = test system: CAKI-1 renal
CCRF-CEM leukemia = test system: CCRF-CEM leukemia
DMS 114 small cell lung = test system: DMS 114 small cell lung
DU-145 prostate = test system: DU-145 prostate
EKVX NSCLC = test system: EKVX NSCLC
HCC-2998 colon = test system: HCC-2998 colon
HCT-116 colon = test system: HCT-116 colon
HCT-15 colon = test system: HCT-15 colon
HL-60(TB) leukemia = test system: HL-60(TB) leukemia
HOP-62 NSCLC = test system: HOP-62 NSCLC
HS 578T breast = test system: HS 578T breast
HT29 colon = test system: HT29 colon
K-562 leukemia = test system: K-562 leukemia
KM12 colon = test system: KM12 colon
KM20L2 colon = test system: KM20L2 colon
LXFL 529 NSCLC = test system: LXFL 529 NSCLC
M14 melanoma = test system: M14 melanoma
M19-MEL melanoma = test system: M19-MEL melanoma
MCF7 breast = test system: MCF7 breast
MDA-MB-231 breast = test system: MDA-MB-231 breast
MDA-MB-435 = test system: MDA-MB-435
MDA-N = test system: MDA-N
MOLT-4 leukemia = test system: MOLT-4 leukemia
NCI-H226 lung = test system: NCI-H226 lung
NCI-H522 lung = test system: NCI-H522 lung
NCI/ADR-RES ovarian = test system: NCI/ADR-RES ovarian
OVCAR-3 ovarian = test system: OVCAR-3 ovarian
OVCAR-5 ovarian = test system: OVCAR-5 ovarian
OVCAR-8 ovarian = test system: OVCAR-8 ovarian
SF-268 CNS = test system: SF-268 CNS
SF-295 CNS = test system: SF-295 CNS
SF-539 CNS = test system: SF-539 CNS
SK-MEL-2 melanoma = test system: SK-MEL-2 melanoma
SK-MEL-28 melanoma = test system: SK-MEL-28 melanoma
SK-MEL-5 melanoma = test system: SK-MEL-5 melanoma
SK-OV-3 ovarian = test system: SK-OV-3 ovarian
SN12C renal = test system: SN12C renal
SNB-19 CNS = test system: SNB-19 CNS
SNB-75 CNS = test system: SNB-75 CNS
SNB-78 CNS = test system: SNB-78 CNS
SR leukemia = test system: SR leukemia
SW-620 colon = test system: SW-620 colon
T-47D breast = test system: T-47D breast
TK-10 renal = test system: TK-10 renal
U251 CNS = test system: U251 CNS
UACC-257 melanoma = test system: UACC-257 melanoma
UACC-62 melanoma = test system: UACC-62 melanoma
UO-31 renal = test system: UO-31 renal
COLO 205 colon = test system: COLO 205 colon
HOP-92 NSCLC = test system: HOP-92 NSCLC
IGROV1 ovarian = test system: IGROV1 ovarian
LOX IMVI melanoma = test system: LOX IMVI melanoma
MALME-3M melanoma = test system: MALME-3M melanoma
NCI-H23 lung = test system: NCI-H23 lung
NCI-H460 lung = test system: NCI-H460 lung
OVCAR-4 ovarian = test system: OVCAR-4 ovarian
PC-3 prostate = test system: PC-3 prostate
RPMI-8226 leukemia = test system: RPMI-8226 leukemia
RXF 393 renal = test system: RXF 393 renal

## CC(=O)c1cccc(NC2C(N)C(NC(=O)N(C)C)(C(C)O)C(C)(O)C2(O)COC(=O)c2c(C)cccc2O)c1 (configuration not stated)
786-0 renal
  TGI: 14.6 nM
A498 renal
  TGI: < 1 nM
A549 NSCLC
  TGI: 347 nM
ACHN renal
  TGI: 334 nM and 539 nM
BT-549 breast
  TGI: 12 nM
CAKI-1 renal
  TGI: 23.5 nM
CCRF-CEM leukemia
  TGI: 205 nM
DMS 114 small cell lung
  TGI: 85.5 nM
DU-145 prostate
  TGI: 20.2 nM
EKVX NSCLC
  TGI: 80 nM
HCC-2998 colon
  TGI: 2.95 nM
HCT-116 colon
  TGI: 43.7 nM and 185 nM
HCT-15 colon
  TGI: 1010 nM
HL-60(TB) leukemia
  TGI: < 1 nM
HOP-62 NSCLC
  TGI: 78.6 nM
HS 578T breast
  TGI: 12.2 nM
HT29 colon
  TGI: 1080 nM and 113 nM
K-562 leukemia
  TGI: 150 nM
KM12 colon
  TGI: 213 nM and 164 nM
KM20L2 colon
  TGI: 372 nM
LXFL 529 NSCLC
  TGI: 1010 nM
M14 melanoma
  TGI: 300 nM
M19-MEL melanoma
  TGI: 203 nM
MCF7 breast
  TGI: 1130 nM
MDA-MB-231 breast
  TGI: 208 nM
MDA-MB-435
  TGI: 15.7 nM
MDA-N
  TGI: 13.5 nM
MOLT-4 leukemia
  TGI: 835 nM
NCI-H226 lung
  TGI: 1.41 nM
NCI-H522 lung
  TGI: 64.1 nM
NCI/ADR-RES ovarian
  TGI: 591 nM
OVCAR-3 ovarian
  TGI: 262 nM
OVCAR-5 ovarian
  TGI: 45.7 nM and 186 nM
OVCAR-8 ovarian
  TGI: 131 nM
SF-268 CNS
  GI50: < 1 nM
SF-295 CNS
  TGI: 164 nM and 231 nM
SF-539 CNS
  TGI: < 1 nM
SK-MEL-2 melanoma
  TGI: 18.6 nM
SK-MEL-28 melanoma
  TGI: 1040 nM and 532 nM
SK-MEL-5 melanoma
  TGI: 22.7 nM
SK-OV-3 ovarian
  TGI: 80.8 nM and 205 nM
SN12C renal
  TGI: 106 nM
SNB-19 CNS
  TGI: 99.2 nM and 936 nM
SNB-75 CNS
  GI50: < 1 nM
SNB-78 CNS
  TGI: 54.1 nM
SR leukemia
  TGI: > 100000 nM
SW-620 colon
  TGI: 1750 nM
T-47D breast
  TGI: 8.34 nM
TK-10 renal
  TGI: 118 nM
U251 CNS
  TGI: 109 nM
UACC-257 melanoma
  GI50: 31.4 nM
UACC-62 melanoma
  TGI: 119 nM
UO-31 renal
  TGI: 194 nM and 257 nM

## C=CCn1c(=O)c(C)cn(/C(=C/C(=O)OCC)C(=O)OCC)c1=O
786-0 renal
  TGI: 19200 nM
A498 renal
  TGI: 45100 nM
A549 NSCLC
  TGI: 87500 nM
ACHN renal
  TGI: 21200 nM
BT-549 breast
  TGI: 30200 nM
CAKI-1 renal
  TGI: 3650 nM
CCRF-CEM leukemia
  TGI: 5420 nM
COLO 205 colon
  TGI: 15200 nM
DU-145 prostate
  TGI: > 74300 nM
EKVX NSCLC
  TGI: 28700 nM
HCC-2998 colon
  TGI: 33500 nM
HCT-116 colon
  TGI: 21500 nM
HCT-15 colon
  TGI: 13700 nM
HL-60(TB) leukemia
  TGI: 5480 nM
HOP-62 NSCLC
  TGI: > 100000 nM
HOP-92 NSCLC
  TGI: 17200 nM
HS 578T breast
  TGI: 76100 nM
HT29 colon
  TGI: 25800 nM
IGROV1 ovarian
  TGI: 31400 nM
K-562 leukemia
  TGI: 17100 nM
KM12 colon
  TGI: 36000 nM
LOX IMVI melanoma
  TGI: 21300 nM
M14 melanoma
  TGI: 28100 nM
MALME-3M melanoma
  TGI: 29200 nM
MCF7 breast
  TGI: 18900 nM
MDA-MB-231 breast
  TGI: 29300 nM
MDA-MB-435
  TGI: 28200 nM
MDA-N
  TGI: 33700 nM
MOLT-4 leukemia
  TGI: 21200 nM
NCI-H226 lung
  TGI: > 54700 nM
NCI-H23 lung
  TGI: 31800 nM
NCI-H460 lung
  TGI: > 68900 nM
NCI-H522 lung
  TGI: 10900 nM
NCI/ADR-RES ovarian
  TGI: 55500 nM
OVCAR-3 ovarian
  TGI: 23300 nM
OVCAR-4 ovarian
  TGI: 46400 nM
OVCAR-5 ovarian
  TGI: 30200 nM
OVCAR-8 ovarian
  TGI: 45900 nM
PC-3 prostate
  TGI: 28900 nM
RPMI-8226 leukemia
  TGI: 39500 nM
RXF 393 renal
  TGI: 28200 nM
SF-268 CNS
  TGI: 44300 nM
SF-295 CNS
  TGI: > 100000 nM
SF-539 CNS
  TGI: 63200 nM
SK-MEL-2 melanoma
  TGI: 53600 nM
SK-MEL-28 melanoma
  TGI: 32300 nM
SK-MEL-5 melanoma
  TGI: 36300 nM
SK-OV-3 ovarian
  TGI: > 100000 nM
SN12C renal
  TGI: 29700 nM
SNB-19 CNS
  TGI: > 86100 nM
SNB-75 CNS
  TGI: 25600 nM
SR leukemia
  TGI: 13300 nM
SW-620 colon
  TGI: 15500 nM
T-47D breast
  TGI: 30700 nM
TK-10 renal
  TGI: 28800 nM
U251 CNS
  TGI: 28400 nM
UACC-257 melanoma
  TGI: 55500 nM
UACC-62 melanoma
  TGI: 34400 nM
UO-31 renal
  TGI: 29100 nM
